Columns and labels:
[1] = Stability of the calcipotriene and betamethasone dipropionate composition at 40° C. (quantitative HPLC); type: physicochemical
Procedure: (§1) In both of the above cases, stability is measured after incubation in a closed container at the recited temperature for the recited amount of time; stability is determined by any quantitative assay for the recited component, and is preferably determined by HPLC methodologies known in the art.
The amount of the recited components in Table 1 were measured by quantitiative HPLC 1-2 days after the cooling (Time zero) and at the recited times after storage at the recited temperatures.
The amount of the recited components in Table 1 were measured by quantitiative HPLC 1-2 days after the cooling (Time zero) and at the recited times after storage at the recited temperatures).

[2] = Stability of the calcipotriene and betamethasone dipropionate composition at 55° C. (quantitative HPLC); type: physicochemical; conditions: Example 1 ointment
Procedure: as §1

[3] = reportedly; cited from earlier work
[4] = asserted in U.S. Pat. No. 5,763,426; cited from earlier work

Row | Compound | Assay (%) Time zero ([1]; Example 1 ointment (medium chain triglyceride), 1-2 days after cooling, HPLC) [%] | Assay (%) 1 months ([1]; Example 1 ointment, stored at 40° C. 1 month) [%] | Assay (%) 2 months ([1]; Example 1 ointment, stored at 40° C. 2 months) [%] | Assay (%) 3 months ([1]; Example 1 ointment, stored at 40° C. 3 months) [%] | Assay Time zero ([1]; Example 2 ointment (polysorbate 80), time zero) [%] | Assay 1 months ([1]; Example 2 ointment, stored at 40° C. 1 month) [%] | Assay 2 months ([1]; Example 2 ointment, stored at 40° C. 2 months) [%] | Assay (%) 3 days ([2]; stored at 55° C. 3 days) [%] | Assay (%) Time zero ([2]; time zero (Table 2)) [%] | pH at which most stable [3] | stability of crystal form [4]
1 | C=C1/C(=C\C=C2/CCC[C@]3(C)[C@@H]([C@H](C)/C=C/[C@@H](O)C4CC4)CC[C@@H]23)C[C@@H](O)C[C@@H]1O [Calcipotriene, calcipotriene] | 95.8 | 98.0 | 97.1 | 100.5 | 99.1 | 97.9 | 97.4 | 96.4 | 95.8 | greater than 8 | 
2 | C=C1/C(=C\C=C2/CCC[C@]3(C)[C@@H]([C@H](C)/C=C/[C@@H](O)C4CC4)CC[C@@H]23)C[C@@H](O)C[C@@H]1O [calcipotriol hydrate] |  |  |  |  |  |  |  |  |  |  | surprisingly stable

— patent US20120046253A1, “STABLE PHARMACOLOGICALLY ACTIVE COMPOSITIONS INCLUDING VITAMIN D CONTAINING AND CORTICOSTEROID COMPOUNDS WITH LOW pH COMPATIBILITY” (priority 2006, published 2012)
